In brackets after ≈: the same amount, converted by molar mass. Where two headings read alike, the source gives them in different places. Where a SMILES comes first, the peptide text is derived from it. Bridges are numbered along the chain shown (N, C = ends). [ ]: non-standard residue; d: D form. The star is where a group is joined. NMeT = CN[C@H](C(=O)O)[C@@H](C)O; dNMeL = CN[C@H](CC(C)C)C(=O)O; NMeV = CN[C@H](C(=O)O)C(C)C; X1 = COC(=O)[C@H](N)CS*; X2 = N[C@H](CS*)C(=O)O
Legend:
Mav strain MAH11 = details: 40 h

Structure (SMILES)	Luminescence after benzyl alcohol pretreatment (Msm (luc) cells)	Luminescence after spermidine pretreatment (Msm (luc) cells)	MIC Mtb (Mtb strain mc^26206; strain mc^26206, 40 h) [µM]	MIC Mav (Mav strain MAH11) [µM]	MIC Mtb (Mtb strain mc^26206) [µM]
O=C(O)[C@H]1CSC(c2nc3ccc(O)cc3s2)=N1 [D-luciferin]	modestly reduced the accumulation	significant loss of signal	–	–	–
CC(=O)N[C@@H](CSSC[C@@H](N)C(=O)O)C(=O)N(C)[C@H](C(=O)N1CCC[C@H]1C(=O)N(C)[C@@H]1C(=O)N[C@@H](CC(C)C)C(=O)N2CCC[C@H]2C(=O)N[C@@H](CC(C)C)C(=O)N(C)[C@@H](C(C)C)C(=O)N2CCC[C@H]2C(=O)N(C)[C@H](CC(C)C)C(=O)NCC(=O)O[C@@H]1C)C(C)C [cys-GM] (Ac-C(X2)[NMeV]P[NMeT]LPL[NMeV]P[dNMeL]G; ester 4-C)	–	–	> 32	> 32	–
COC(=O)[C@H](N)CSSC[C@H](NC(C)=O)C(=O)N(C)[C@H](C(=O)N1CCC[C@H]1C(=O)N(C)[C@@H]1C(=O)N[C@@H](CC(C)C)C(=O)N2CCC[C@H]2C(=O)N[C@@H](CC(C)C)C(=O)N(C)[C@@H](C(C)C)C(=O)N2CCC[C@H]2C(=O)N(C)[C@H](CC(C)C)C(=O)NCC(=O)O[C@@H]1C)C(C)C [cys-ME-GM] (Ac-C(X1)[NMeV]P[NMeT]LPL[NMeV]P[dNMeL]G; ester 4-C)	–	–	–	4 (≈ 5.29 µg/mL)	2 (≈ 2.64 µg/mL)
